Results: patent US20250040549A1, “FUNGICIDAL COMPOSITIONS” (SYNGENTA CROP PROTECTION AG, priority 2021, published 2025)

Assays:
[1] = test system: Botrytis cinerea; test: Botrytis cinerea growth inhibition in nutrient broth, microtiter plate; format: cell-based; details: alone, 72 hrs
Description: (§1) Botrytis cinerea (Gray Mould): Conidia of the fungus from cryogenic storage were directly mixed into nutrient broth (POE potato dextrose broth). A DMSO solution of the test compounds was placed into a microtiter plate (96-well format) and the nutrient broth containing the fungal spores was added to it. The test plates were incubated at 24 C and the inhibition of growth was determined photometrically after 72 hrs.

[2] = test system: Mycosphaerella arachidis Syn. Cercospora arachidicola; test: Mycosphaerella arachidis growth inhibition in nutrient broth, microtiter plate; format: cell-based; details: alone, 5-6 days
Description: as §1, with “Mycosphaerella arachidis Syn. Cercospora arachidicola (Brown Leaf Spot of Peanut):” for “Botrytis cinerea (Gray Mould):”, “(PDB” for “(POE”, “5-6 days at 620 nm” for “72 hrs.”

[3] = test system: Phakopsora pachyrhizi (Asian soybean rust); test: Phakopsora pachyrhizi on leaf disks from sprayed soybean plants; format: in vivo; details: alone, 11 to 14 days after inoculation; for inhibition at 1 g/ha: 1 g ai/ha
Description: Phakopsora Pachyrhizi (Soybean Rust):
Whole soybean plants are treated with the recited active ingredients 4 weeks after planting. 1 day after spraying leaf disks are cut from the first trifoliate leaf. Five repetitions at each rate are conducted. The leaf disks are inoculated with Phakopsora pachyrhizi (Asian soybean rust) one day after treatment. Evaluation of the leaf disks is conducted 11 to 14 days after inoculation and the activity is derived from the relation of the treated vs untreated, infested check. The rates of the active ingredients used are given in Table as g active ingredient (a.i.)/ha.

[4] = test system: Glomerella Lagenarium Syn. Colletotrichum lagenarium; test: Glomerella lagenarium growth inhibition in nutrient broth, microtiter plate; format: cell-based; details: alone, 72 hrs
Description: as §1, with “Glomerella Lagenarium Syn. Colletotrichum lagenarium (Anthracnose of Cucurbits):” for “Botrytis cinerea (Gray Mould):”, “(PDB” for “(POE”, “hrs at 620 nm.” for “hrs.”

[5] = test system: Alternaria solani; test: Alternaria solani growth inhibition in nutrient broth, microtiter plate; format: cell-based; details: alone, 48 hrs
Description: as §1, with “Alternaria solani (Early Blight Tomato/Potato):” for “Botrytis cinerea (Gray Mould):”, “(PDB” for “(POE”, “48” for “72”

[6] = test system: Septoria tritici; test: Septoria tritici growth inhibition in nutrient broth, microtiter plate; format: cell-based; details: alone, 72 hrs
Description: as §1, with “Septoria tritici (Leaf Blotch):” for “Botrytis cinerea (Gray Mould):”, “(PDB” for “(POE”

[7] = test system: Sclerotinia sclerotiorum; test: Sclerotinia sclerotiorum growth inhibition in nutrient broth, microtiter plate; format: cell-based; details: alone, 72 hrs
Description: as §1, with “Sclerotinia sclerotiorum (Cottony Rot, White Mold, Etc.): Mycelial fragments” for “Botrytis cinerea (Gray Mould): Conidia”, “fungus prepared” for “fungus”, “a fresh liquid culture” for “cryogenic storage”, “(PDB” for “(POE”, “hrs at 620 nm.” for “hrs.”

[8] = Phakopsora pachyrhizi, foliar, read-out: Observed Activity (%)

SMILES | Observed Activity (%) ([1]; 0.005 g ai/ha) | Observed Activity (%) ([2]; 0.001 g ai/ha) | Observed Activity (%) ([2]; 0.005 g ai/ha) | inhibition at 1 g/ha [3, 8] | Observed Activity (%) ([4]; 0.001 g ai/ha) | Observed Activity (%) ([4]; 0.005 g ai/ha) | Observed Activity (%) ([5]; 0.005 g ai/ha) | Observed Activity (%) ([6]; 0.001 g ai/ha) | Observed Activity (%) ([7]; 0.001 g ai/ha) | Observed Activity (%) ([7]; 0.005 g ai/ha) | Observed Activity (%) ([3]; 0.25 g ai/ha) | Observed Activity (%) ([3]; 0.5 g ai/ha) | other results
COC(=O)NCc1cc(-c2ccn(-c3c(F)cc(C(C)C)cc3F)n2)ccc1C [Compound A-1.1, Methyl N-[[5-[1-(2,6-difluoro-4-isopropyl-phenyl)pyrazol-3-yl]-2-methyl-phenyl]methyl]carbamate] | 0% | 0% | 20% | 0% | 0% | 0% | 0% | 20% | 0% | 0% |  |  | 
CCC(=O)Oc1c(OC)ccnc1C(=O)N[C@@H](C)C(=O)O[C@@H](C)[C@@H](C)c1ccccc1C [Metarylpicoxamid, metarylpicoxamid] |  |  |  |  |  |  |  |  |  |  | 0% | 34% | Observed Activity (%) ([1]; 0.0246 g ai/ha): 0%; Observed Activity (%) ([1]; 0.074 g ai/ha): 20%; Observed Activity (%) ([1]; 0.22 g ai/ha): 50%; Observed Activity (%) ([2]; 0.0080 g ai/ha): 20%; Observed Activity (%) ([2]; 0.0246 g ai/ha): 50%; Observed Activity (%) ([4]; 0.22 g ai/ha): 0%; Observed Activity (%) ([4]; 0.66 g ai/ha): 0%; Observed Activity (%) ([4]; 2 g ai/ha): 70%; Observed Activity (%) ([5]; 0.074 g ai/ha): 0%; Observed Activity (%) ([5]; 0.22 g ai/ha): 20%; Observed Activity (%) ([5]; 0.66 g ai/ha): 50%; Observed Activity (%) ([6]; 0.008 g ai/ha): 20%; Observed Activity (%) ([6]; 0.0246 g ai/ha): 50%; Observed Activity (%) ([6]; 0.074 g ai/ha): 70%; Observed Activity (%) ([7]; 2 g ai/ha): 50%
O=C(Nc1ccccc1F)c1ccc(-c2noc(C(F)(F)F)n2)cc1 [Flufenoxadiazam, flufenoxadiazam] |  |  |  |  |  |  |  |  |  |  | 0% | 10% | Observed Activity (%) ([5]; 2.22 g ai/ha): 0%; Observed Activity (%) ([5]; 6.66 g ai/ha): 0%; Observed Activity (%) ([5]; 20 g ai/ha): 0%
COC(=O)NCc1cc(-c2ccn(-c3c(F)cc(C4CC4)cc3F)n2)ccc1C [Compound A-1.3, methyl N-[[5-[1-(4-cyclopropyl-2,6-difluoro-phenyl)pyrazol-3-yl]-2-methyl-phenyl]methyl]carbamate] | 0% | 0% | 50% | 2% | 0% | 0% | 20% | 50% | 0% | 0% |  |  | inhibition at 0.5 g/ha ([3]; Phakopsora pachyrhizi, foliar, 0.5 g ai/ha, read-out: Observed Activity (%)): 0%; Observed Activity (%) ([5]; 0.01 g ai/ha): 50%
